The record followed here is US10030016B2 (Sunesis Pharmaceuticals, Inc., priority 2009, dated 2018).

Counter-ions that a name gives are not always drawn. Like-named read-outs stand apart in the source and are kept apart here.

Experiment [1] deals with phospho-akt (Thr308) in PC-3 cells. Briefly: Inhibition of phospho-akt (Thr308) in PC-3 cells, MSD phospho-akt 308 ELISA kit. The format is cell-based. As to conditions: 2 hours, no serum, read-out: EC50. The method, boiled down:
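Electrochemiluminescent MSD ELISA of Thr308-phosphorylated Akt after a 2 h serum-free compound exposure of PC-3 cells (15,000/well, plated overnight). Controls: DMSO (high), 5 μM wortmannin (low). Lysate binding overnight at 4 °C; detection antibody 1 h at room temperature.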
(In general: An ELISA detects its analyte on a solid surface through an enzyme-linked reagent.)

For experiment [2], the target named is PDK1 (Homo sapiens (Human), UniProt O15530). Nature of the experiment: PDK1 kinase assay (coupled PDK1/AKT/FAM-crosstide assay, IMAP fluorescence polarization). The format is biochemical. In a few lines: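 GST-tagged PDK1 (aa 51-359, 0.75 nM) was coupled to unphosphorylated GST-AKT2 140-467-PIFtide (10 nM) and 100 nM FAM-crosstide at 40 μM ATP, in Tris pH 7.2 buffer, for 30 min at 25 °C. Crosstide phosphorylation was read by IMAP fluorescence polarization (ΔmP) and fitted with a 4-parameter curve.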
For orientation: Fluorescence polarisation rises when a labelled molecule tumbles more slowly, as on binding a larger partner.

[3] abbreviates: Homo sapiens, inhibition of P308 Akt in PC-3 cells, MSD.
Setting [4] is: inhibition of phospo-PDK1 in vitro.
The mark [5] stands for this setting: Homo sapiens, inhibition of P308 Akt in PC-3 cells using MSD.

PDK1, sequence (O15530 51-359): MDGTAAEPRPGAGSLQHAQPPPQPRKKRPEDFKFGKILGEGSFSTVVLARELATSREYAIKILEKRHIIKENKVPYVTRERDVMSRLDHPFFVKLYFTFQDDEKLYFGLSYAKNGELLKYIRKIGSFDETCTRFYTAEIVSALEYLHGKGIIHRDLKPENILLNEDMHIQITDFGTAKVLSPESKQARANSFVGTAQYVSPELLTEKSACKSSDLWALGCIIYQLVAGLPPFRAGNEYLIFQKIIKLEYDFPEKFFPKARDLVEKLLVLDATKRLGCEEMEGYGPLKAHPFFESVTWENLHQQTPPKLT

In general, EC50 refers to the concentration at which the effect is half-maximal. As usually defined, the IC50 is the concentration at which inhibition is half-maximal. As to `C[C@H](NC(=O)c1cccnc1NCc1ccc(-c2ccc3ncc4c(c3c2)n(C)c(=O)n4C)s1)c1ccc(F)cc1` [Example 2.17, (S)-2-(((5-(1,3-dimethyl-2-oxo-2,3-dihydro-1H-imidazo(4,5-c]quinolin-8-yl)thiophen-2-yl)methyl)amino)-N-(1-(4-fluoro-phenyl)ethyl)nicotinamide], the half-maximal effective concentration (EC50) in experiment [1] (setting [3]) was above 10000 nM. The compound also showed an IC50 in experiment [2] (setting [4]) above 5000 nM.

In the case of `CC(C)Oc1cc(CNc2ncccc2C(=O)N(C)C2CC2)cc(-c2c[nH]c3ncc(C(=O)NC4CC4)cc23)c1` [Example 4.1.10, N-cyclopropyl-3-{3-[({3-[cyclopropyl(methyl)carbamoyl]pyridin-2-yl}amino)methyl]-5-(propan-2-yloxy)phenyl}-1H-pyrrolo[2,3-b] pyridine-5-carboxamide], the EC50 in experiment [1] (setting [3]) is 1000 to 10000 nM. In experiment [2] (setting [4]), this compound showed a 50% inhibitory concentration (IC50) above 5000 nM.

Consider `CNC(=O)c1cc(S(=O)(=O)N2CCN(C)CC2)cnc1NCc1ccc(-c2ccc3ncnc(N)c3c2)s1` [Example 8.6.12, 2-(((5-(4-aminoquinazolin-6-yl)thiophen-2-yl)methyl)amino)-N-methyl-5-(4-methylpiperazin-1-ylsulfonyl)nicotinamide], for which the EC50 in experiment [1] (setting [3]) is above 10000 nM. This compound yielded an IC50 in experiment [2] (setting [4]) above 5000 nM.

Turning to `C[C@H](NC(=O)c1cc(C#N)cnc1NCc1ccc(-c2cnc(N)c(OCCN)n2)cc1)c1ccc(F)cc1` [Example 165, 2-{4-[5-Amino-6-(2-amino-ethoxy)-pyrazin-2-yl]-benzylamino}-5-cyano-N-[(S)-1-(4-fluoro-phenyl)-ethyl]-nicotinamide], the EC50 in experiment [1] (setting [5]) is below 1000 nM. The same compound registered an IC50 in experiment [2] (inhibition of PDK1 in vitro) below 100 nM.

For `Nc1ncc(-c2ccc(CNc3ncc(C(F)(F)F)cc3C(=O)Nc3ccc(F)cc3)cc2)nc1NCC(O)CO` (stereo not shown) [Example 245, 2-{4-[5-Amino-6-(2,3-dihydroxy-propylamino)-pyrazin-2-yl]-benzylamino}-N-(4-fluoro-phenyl)-5-trifluoromethyl-nicotinamide], the EC50 in experiment [1] (setting [5]) was below 1000 nM. Besides, in experiment [2] (inhibition of PDK1 in vitro), the IC50 is below 100 nM.

With `CCC(C)NS(=O)(=O)c1cnc(NCc2ccc(-c3ccc4ncnc(N)c4c3)s2)c(C(=O)NC)c1` (stereo not shown) [Example 8.6.17, 2-(((5-(4-aminoquinazolin-6-yl)thiophen-2-yl)methyl)amino)-5-(N-sec-butylsulfamoyl)-N-methylnicotinamide], the EC50 in experiment [1] (setting [3]) lay in the range of 1000 to 10000 nM. This compound registered a half-maximal inhibitory concentration (IC50) in experiment [2] (setting [4]) above 5000 nM.

For the compound `C[C@H](NC(=O)c1cc(S(C)(=O)=O)cnc1NCc1ccc(-c2ccc3ncnc(N)c3c2)s1)c1ccc(F)c(F)c1`, the half-maximal effective concentration (EC50) in experiment [1] (setting [3]) is below 1000 nM. Moreover, the half-maximal inhibitory concentration (IC50) in experiment [2] (setting [4]) fell in the range of 100 to 1000 nM.

`CN(c1ncnc2ccc(-c3ccc(CNc4ncccc4C(=O)NCc4ccc(F)c(F)c4)s3)cc12)C1CCCCC1` [Example 4.21, 2-(((5-(4-(cyclohexyl (methyl)amino)quinazolin-6-yl)thiophen-2-yl)methyl)amino)-N-(3,4-difluorobenzyl) nicotinamide]: the half-maximal effective concentration (EC50) in experiment [1] (setting [3]) is above 10000 nM. Besides, in experiment [2] (setting [4]), the concentration for half-maximal inhibition (IC50) was above 5000 nM.

Take `C[C@H](NC(=O)c1cc(C#N)cnc1NCc1cnc(-c2cnc3[nH]ncc3c2)cn1)c1ccc(F)cc1` [Example 63, 5-Cyano-N-[(S)-1-(4-fluoro-phenyl)-ethyl]-2-{[5-(1H-pyrazolo[3,4-b]pyridin-5-yl)-pyrazin-2-ylmethyl]-amino}-nicotinamide]: in experiment [1] (setting [5]), the 50% effective concentration (EC50) is above 10000 nM. In addition, the 50% inhibitory concentration (IC50) in experiment [2] (inhibition of PDK1 in vitro) was below 100 nM.

For `Nc1n[nH]c2ncc(-c3ccc(CNc4ncc(C(F)(F)F)cc4C(=O)NC4CCOC4)cc3)cc12` (stereo not shown) [Example 305, 2-(4-(3-amino-1H-pyrazolo [3,4-b]pyridin-5-yl)benzylamino)-N-(tetrahydrofuran-3-yl)-5-(trifluoromethyl)nicotinamide], the concentration giving a half-maximal response (EC50) in experiment [1] (setting [5]) lay within 1000 to 10000 nM. Besides, the 50% inhibitory concentration (IC50) in experiment [2] (inhibition of PDK1 in vitro) lay in the range of 100 to 1000 nM.

As for `Nc1ncnc2ccc(-c3ccc(CNc4ncccc4C(=O)NCc4cccc(Cl)c4)s3)cc12` [Example 3.27, 2-({[5-(4-aminoquinazolin-6-yl)thiophen-2-yl]methyl}amino)-N-(3-chlorobenzyl) pyridine-3-carboxamide (TFA salt)], the EC50 in experiment [1] (Homo sapiens, PC-3, 2 h, inhibition of P308 Akt in PC-3 cells, MSD) is above 10000 nM. Also, the 50% inhibitory concentration (IC50) in experiment [2] (setting [4]) fell in the range of 100 to 1000 nM.

As for `C[C@H](NC(=O)c1cccnc1Nc1ccc(-c2ccc3ncnc(N)c3c2)s1)c1ccc(F)c(F)c1` [Example 51, (S)-2-(5-(4-aminoquinazolin-6-yl)thiophen-2-ylamino)-N-(1-(3,4-difluorophenyl)ethyl)nicotinamide], the EC50 in experiment [1] (setting [5]) is above 10000 nM. For the same compound, in experiment [2] (inhibition of PDK1 in vitro), the half-inhibitory concentration (IC50) is above 5000 nM.

In the case of `CCN(CC)CCNC(=O)c1c(C)[nH]c(/C=C2\C(=O)Nc3cc(/C=C/CNc4ncccc4C(=O)NCc4ccc(F)c(F)c4)ccc32)c1C` [Example 15.17, 2-((E)-3-((Z)-3-((4-(2-(diethylamino)ethylcarbamoyl)-3,5-dimethyl-1H-pyrrol-2-yl)methylene)-2-oxoindolin-6-yl)allylamino)-N-(3,4-difluorobenzyl)nicotinamide], the EC50 in experiment [1] (setting [3]) fell in the range of 1000 to 10000 nM. The IC50 in experiment [2] (setting [4]) was below 100 nM.

For the compound `CNC(=O)c1cc(S(=O)(=O)NCc2ccccc2)cnc1NCc1ccc(-c2ccc3ncnc(N)c3c2)s1` [Example 8.6.15, 2-(((5-(4-aminoquinazolin-6-yl)thiophen-2-yl)methyl)amino)-5-(N-benzylsulfamoyl)-N-methylnicotinamide], the EC50 in experiment [1] (setting [3]) is above 10000 nM. The compound further gave a half-inhibitory concentration (IC50) in experiment [2] (setting [4]) below 100 nM.

With `C[C@H](NC(=O)c1cc(C#N)cnc1NCc1ccc(-c2cnc(N)c(N3CCC[C@@H](N)C3)n2)cc1)c1ccc(F)cc1` [Example 188, 2-{4-[5-Amino-6-((R)-3-amino-piperidin-1-yl)-pyrazin-2-yl]-benzylamino}-5-cyano-N-[(S)-1-(4-fluoro-phenyl)-ethyl]-nicotinamide], the EC50 in experiment [1] (setting [5]) was in the range of 1000 to 10000 nM. In addition, in experiment [2] (inhibition of PDK1 in vitro), the IC50 is below 100 nM.

For `C=C1c2ccnc(NCc3ccc(-c4ccc5ncnc(N)c5c4)s3)c2C(=O)N1Cc1ccc(F)c(F)c1` [Ex. 7.20], in experiment [1] (setting [3]), the EC50 lay in the range of 1000 to 10000 nM. The compound also yielded a 50% inhibitory concentration (IC50) in experiment [2] (setting [4]) of 100 to 1000 nM.

For the compound `COc1ccnc(NCc2ccc(-c3ccc4ncnc(N)c4c3)s2)c1C(=O)N[C@@H](C)c1ccc(F)cc1` [Ex. 7.6, (S)-2-(((5-(4-aminoquinazolin-6-yl)thiophen-2-yl)methyl)amino)-N-(1-(4-fluoro-phenyl)ethyl)-4-methoxynicotinamide], the EC50 in experiment [1] (setting [3]) was below 1000 nM. The IC50 in experiment [2] (setting [4]) was below 100 nM.

Take `C[C@H](NC(=O)c1cc(C#N)cnc1NCc1ccc(-c2ccc(N)nc2)cc1F)c1ccc(F)cc1` [Example 128]: the EC50 in experiment [1] (setting [5]) lay within 1000 to 10000 nM. Moreover, in experiment [2] (inhibition of PDK1 in vitro), the half-inhibitory concentration (IC50) was below 100 nM.

For the compound `C[C@H](NC(=O)c1cc(C#N)cnc1NCc1ccc(-c2cn(S(=O)(=O)c3ccccc3)nc2N)cc1)c1ccc(F)cc1` [Example 143, (S)-2-(4-(3-amino-1-(phenylsulfonyl)-1H-pyrazol-4-yl)benzylamino)-5-cyano-N-(1-(4-fluorophenyl)ethyl) nicotinamide], in experiment [1] (setting [5]), the concentration giving a half-maximal response (EC50) was above 10000 nM. The compound also displayed an IC50 in experiment [2] (inhibition of PDK1 in vitro) above 5000 nM.

Regarding `C[C@H](NC(=O)c1cccnc1NCc1ccc(-c2ccc3ncnc(N4CC(C)(O)C4)c3c2)s1)c1ccc(F)c(F)c1` [Example 4.37], the 50% effective concentration (EC50) in experiment [1] (setting [3]) fell in the range of 1000 to 10000 nM. In experiment [2] (setting [4]), this compound returned a 50% inhibitory concentration (IC50) of 100 to 1000 nM.

As for `Cc1cccc(Cl)c1NC(=O)c1cc(C(F)(F)F)cnc1NCc1ccc(-c2cnc3[nH]nc(N)c3c2)cc1` [Example 438, 2-(4-(3-amino-1H-pyrazolo[3,4-b]pyridin-5-yl)benzylamino)-N-(2-chloro-6-methyl-phenyl)-5-(trifluoro-methyl)nicotinamide], the EC50 in experiment [1] (Homo sapiens, PC-3, 2 h, inhibition of P308 Akt in PC-3 cells using MSD) was above 10000 nM. Besides, the 50% inhibitory concentration (IC50) in experiment [2] (inhibition of PDK1 in vitro) lay in the range of 1000 to 5000 nM.

As to `CNc1ncc2cc(C#CCNc3ncc(C(F)(F)F)cc3C(=O)NCc3ccc(F)c(F)c3)ccc2n1` [Example 256, N-(3,4-difluorobenzyl)-2-(2-(2-(methylamino)quinazolin-6-yl)prop-2-ynylamino)-5-(trifluoromethyl)nicotinamide], in experiment [1] (setting [5]), the EC50 lay within 1000 to 10000 nM. The compound further displayed an IC50 in experiment [2] (inhibition of PDK1 in vitro) below 100 nM.

Consider `CCOC(=O)c1cccnc1NCc1cc(OC(C)C)cc(-c2cn(S(=O)(=O)c3ccccc3)c3ncc(C(=O)NC4CC4)cc23)c1` [4.1.17], for which, in experiment [1] (inhibition of P308 Akt in PC-3 cells, MSD), the EC50 is above 10000 nM. Further, in experiment [2] (setting [4]), the IC50 was above 5000 nM.

With `C[C@@H](c1ccc(F)c(F)c1)n1cnc2ccnc(NCc3ccc(-c4ccc5ncnc(N)c5c4)s3)c2c1=O` [Example 7.10, 5-({[5-(4-aminoquinazolin-6-yl)thiophen-2-yl]methyl}amino)-3-[(1S)-1-(3,4-difluorophenyl)ethyl] pyrido[4,3-d]pyrimidin-4(3H)-one], in experiment [1] (setting [3]), the EC50 is below 1000 nM. In experiment [2] (setting [4]), this compound gave a concentration for half-maximal inhibition (IC50) below 100 nM.

Consider `C[C@H](NC(=O)c1cc(C#N)cnc1NCc1ccc(-c2cnc(N)c(C(=O)NCC(O)CO)n2)cc1)c1ccc(F)cc1` (stereo partly drawn) [Example 347, 3-amino-6-(4-((5-cyano-3-((S)-1-(4-fluorophenyl)ethylcarbamoyl)pyridin-2-ylamino)methyl)phenyl)-N-(2,3-dihydroxypropyl) pyrazine-2-carboxamide], for which the EC50 in experiment [1] (inhibition of P308 Akt in PC-3 cells using MSD) is below 1000 nM. Besides, in experiment [2] (inhibition of PDK1 in vitro), the IC50 was below 100 nM.

For the compound `CN(Cc1ccc(F)c(F)c1)C(=O)c1nccnc1NCc1ccc(-c2ccc3ncnc(N)c3c2)s1` [Example 3.84, 3-({[5-(4-aminoquinazolin-6-yl)thiophen-2-yl]methyl}amino)-N-(3,4-difluorobenzyl)-N-methylpyrazine-2-carboxamide (TFA salt)], the EC50 in experiment [1] (setting [3]) lay in the range of 1000 to 10000 nM. The IC50 in experiment [2] (setting [4]) lay in the range of 100 to 1000 nM.
